Source: the NIST ThermoML archive (doi:10.1021/acs.jced.5b00152)

Settings: Liquid; for viscosity: Capillary tube (Ostwald / Ubbelohde) method; for mass density: Vibrating tube method

CCO [ethanol]
Settings	mass density [kg/m3]	viscosity [mPa·s]
298.15 K, 1022 kPa	785.87	1.086
298.15 K, 3922 kPa	788.69	1.112
298.15 K, 8793 kPa	792.53	1.148
298.15 K, 12491 kPa	795.7	1.175
298.15 K, 17711 kPa	799.91	1.213
298.15 K, 21982 kPa	802.87	1.244
298.15 K, 24097 kPa	804.5	1.26
298.15 K, 26940 kPa	806.36	1.28
298.15 K, 29139 kPa	807.89	1.296
323.15 K, 3237 kPa	766.361	0.711
323.15 K, 9248 kPa	772.358	0.7435
323.15 K, 12839 kPa	775.758	0.7616
323.15 K, 18790 kPa	780.78	0.7928
323.15 K, 23256 kPa	784.532	0.8153
323.15 K, 25042 kPa	786.147	0.8236
323.15 K, 27936 kPa	788.458	0.8367
323.16 K, 626 kPa	763.659	0.6978
323.16 K, 15104 kPa	777.664	0.7732
333.27 K, 16623 kPa	770.196	0.6592
333.28 K, 909 kPa	754.25	0.5872
333.28 K, 1891 kPa	756.361	0.5916
333.28 K, 5093 kPa	758.805	0.6065
333.28 K, 9067 kPa	762.841	0.6251
333.28 K, 12887 kPa	766.568	0.6421
333.28 K, 22108 kPa	775.145	0.684
333.28 K, 25690 kPa	777.944	0.6985
333.28 K, 29272 kPa	780.933	0.7133

CCCCCO [pentan-1-ol]
Settings	mass density, 298.15 K [kg/m3]	mass density, 323.15 K [kg/m3]	viscosity, 298.15 K [mPa·s]	viscosity, 323.15 K [mPa·s]
1999 kPa	–	794.19	–	1.835
2003 kPa	811.93	–	3.593	–
3999 kPa	813.3	–	3.661	–
4001 kPa	–	795.77	–	1.868
6001 kPa	–	797.32	–	1.903
6003 kPa	814.64	–	3.731	–
8000 kPa	–	798.83	–	1.937
8005 kPa	815.96	–	3.799	–
9998 kPa	–	800.31	–	1.972
10001 kPa	817.26	–	3.867	–
12999 kPa	–	802.47	–	2.025
13000 kPa	819.15	–	3.972	–
16001 kPa	–	804.56	–	2.078
16004 kPa	821	–	4.08	–
19002 kPa	–	806.59	–	2.134
19006 kPa	822.8	–	4.19	–
22000 kPa	824.56	–	4.301	–
22001 kPa	–	808.56	–	2.19
24998 kPa	826.27	–	4.41	–
25002 kPa	–	810.48	–	2.245

CCCCCC [hexane]
Settings	mass density [kg/m3]	viscosity [mPa·s]
293.22 K, 1999 kPa	661.4	0.3196
293.22 K, 3994 kPa	663.53	0.3287
293.22 K, 5999 kPa	665.43	0.339
293.22 K, 8007 kPa	667.57	0.3483
293.22 K, 22004 kPa	680.38	0.4135
293.22 K, 28004 kPa	685.01	0.4427
293.23 K, 10003 kPa	669.41	0.3576
293.23 K, 13000 kPa	672.26	0.3713
293.23 K, 16006 kPa	675.2	0.3851
293.23 K, 19000 kPa	677.83	0.399
293.23 K, 25002 kPa	682.87	0.428
293.23 K, 30001 kPa	686.72	0.4521
313.1 K, 2005 kPa	643.6	0.2614
313.1 K, 3997 kPa	645.97	0.2702
313.1 K, 5999 kPa	648.24	0.2774
313.1 K, 8000 kPa	650.44	0.2853
313.1 K, 9999 kPa	652.57	0.2934
313.1 K, 12997 kPa	655.73	0.305
313.1 K, 15999 kPa	659	0.3165
313.1 K, 18003 kPa	661.04	0.3243
313.1 K, 21999 kPa	664.77	0.3399
313.1 K, 24998 kPa	667.58	0.3504
313.1 K, 28001 kPa	670.32	0.3631
313.1 K, 30004 kPa	672.03	0.37
333 K, 2004 kPa	624.85	0.2192
333 K, 4002 kPa	627.59	0.226
333 K, 6003 kPa	630.29	0.2328
333 K, 8005 kPa	632.82	0.2396
333 K, 10008 kPa	635.78	0.2467
333 K, 12998 kPa	639.36	0.2565
333 K, 16002 kPa	642.74	0.2667
333 K, 19000 kPa	646.04	0.2766
333 K, 21993 kPa	649.32	0.2863
333 K, 25001 kPa	652.41	0.296
333 K, 28000 kPa	655.31	0.3058
333 K, 30005 kPa	657.29	0.3128
353.14 K, 4001 kPa	608.43	0.1911
353.14 K, 8003 kPa	614.97	0.203
353.14 K, 15997 kPa	625.92	0.2264
353.14 K, 21998 kPa	633.46	0.2438
353.15 K, 2003 kPa	605.15	0.1848
353.15 K, 5997 kPa	611.57	0.197
353.15 K, 10009 kPa	618	0.2091
353.15 K, 13000 kPa	622.08	0.2179
353.15 K, 19000 kPa	629.87	0.2352

CCCCCCC [heptane]
Settings	mass density [kg/m3]	viscosity [mPa·s]
293.25 K, 2103 kPa	685.58	0.4229
293.25 K, 3666 kPa	687.27	0.4317
293.25 K, 6195 kPa	689.52	0.4449
293.25 K, 10385 kPa	693.22	0.4681
293.25 K, 14421 kPa	696.48	0.4907
293.25 K, 17447 kPa	698.88	0.5062
293.25 K, 20472 kPa	701.01	0.5237
293.25 K, 23543 kPa	703.3	0.5407
293.25 K, 26611 kPa	705.5	0.5567
313.07 K, 11204 kPa	678.28	0.3782
313.07 K, 17225 kPa	683.61	0.4049
313.07 K, 20247 kPa	686.13	0.4185
313.07 K, 29805 kPa	693.98	0.4596
313.08 K, 2050 kPa	669.15	0.3388
313.08 K, 4083 kPa	671.15	0.3472
313.08 K, 6733 kPa	673.77	0.359
313.08 K, 14195 kPa	681.03	0.3912
313.08 K, 23266 kPa	688.54	0.4314
313.08 K, 26286 kPa	691.26	0.4449
332.77 K, 4091 kPa	654.57	0.2886
332.78 K, 2084 kPa	652.25	0.2805
332.78 K, 7031 kPa	658.26	0.2994
332.78 K, 11151 kPa	662.67	0.3143
332.78 K, 14177 kPa	665.56	0.3261
332.78 K, 17172 kPa	668.79	0.3367
332.78 K, 20193 kPa	671.47	0.3472
332.78 K, 23214 kPa	674.57	0.3581
332.78 K, 26231 kPa	677.28	0.3689
352.39 K, 2184 kPa	635.33	0.2346
352.39 K, 4102 kPa	637.96	0.2413
352.39 K, 11159 kPa	646.85	0.2635
352.39 K, 14169 kPa	650.4	0.2732
352.39 K, 17199 kPa	653.84	0.283
352.39 K, 29758 kPa	666.6	0.3207
352.4 K, 7146 kPa	641.83	0.2514
352.4 K, 20204 kPa	657.05	0.2922
352.4 K, 23212 kPa	660.04	0.3015
352.4 K, 26228 kPa	663.06	0.3106

O [water]
Settings	mass density [kg/m3]	viscosity [mPa·s]
293.36 K, 2061 kPa	999.51	0.9917
293.36 K, 4085 kPa	999.98	0.9931
293.37 K, 7118 kPa	1001.28	0.9928
293.37 K, 26278 kPa	1010.35	0.9863
293.38 K, 11158 kPa	1003.59	0.9898
293.38 K, 17210 kPa	1006.18	0.9897
293.38 K, 20234 kPa	1006.98	0.988
293.38 K, 23255 kPa	1008.25	0.9883
313.08 K, 4076 kPa	994.07	0.6535
313.08 K, 7109 kPa	995.47	0.6538
313.08 K, 11150 kPa	996.66	0.6546
313.08 K, 14177 kPa	997.99	0.655
313.08 K, 17203 kPa	999.9	0.6552
313.08 K, 20228 kPa	1000.99	0.6557
313.08 K, 23250 kPa	1001.91	0.6559
313.08 K, 26271 kPa	1003.18	0.6562
313.08 K, 29788 kPa	1004.77	0.6586
313.09 K, 2053 kPa	992.98	0.6538
332.85 K, 14173 kPa	989.5	0.4707
332.85 K, 17195 kPa	990.83	0.4712
332.85 K, 20214 kPa	991.48	0.4725
332.85 K, 26252 kPa	994.06	0.4751
332.86 K, 4081 kPa	984.88	0.4685
332.86 K, 7113 kPa	985.99	0.4685
332.86 K, 11150 kPa	988.22	0.47
352.57 K, 4073 kPa	973.51	0.3574
352.58 K, 2044 kPa	972.64	0.3565
352.58 K, 7107 kPa	975.4	0.3582
352.59 K, 11142 kPa	977	0.3592
352.59 K, 14161 kPa	977.85	0.36
352.6 K, 17181 kPa	979.13	0.361
352.6 K, 20194 kPa	980.96	0.3617
352.6 K, 23203 kPa	982.36	0.3627
352.6 K, 26211 kPa	983.69	0.3638
352.6 K, 29715 kPa	984.92	0.3648
